Test results taken from patent US20060019890A1, “Method for treating cardiac remodeling following myocardial injury” (priority 2004, published 2006).

Key:
[1] = test system: human cardiac fibroblasts; experiment: BrdU incorporation, cardiac fibroblast proliferation; assay type: cell-based; settings: 5 ng/ml TGFβ
Protocol: Cells were placed in 96-well plates and cultured for 24 h before changing to serum-free medium. […] Subsequently, 10 μmol/L of 5-bromo-2′-deoxyuridine (BrdU) was added to the cells, and they were cultured for an additional 24 h. BrdU incorporation was detected using the Cell Proliferation ELISA kit (Roche, Indianapolis, Ind.). Data was analyzed by ANOVA using the Newman-Keuls test to assess significance.

[2] = test system: human cardiac fibroblasts; experiment: cDNA microarray gene expression profiling of TGFβ- and/or BNP-treated cardiac fibroblasts; settings: for number of gene expression changes induced: 1.8-fold threshold
Protocol: Two lots of primary human cardiac fibroblasts, derived from a person (lot 1) and a person (lot 2), were provided by Cambrex Bio Science (Walkersville, Md.). Cells stained positive for α-smooth muscle actin and vimenfin antibodies corroborating their identity as cardiac fibroblasts and myofibroblasts. Both lots were used for the real-time RT-PCR studies; lot 1 was used for the microarray analysis. Cells at passage 3-5 were cultured in FGM containing 15% FBS. At confluence, cells were split and cultured in 6-well plates for 24 h.
Gene expression profiles were determined from cDNA microarrays containing 8,600 elements derived from clones isolated from normalized cDNA libraries or purchased from ResGen (Invitrogen Life Technologies, Carlsbad, Calif.). DNA for spotting was generated by PCR amplification using 5′amino-modified primers (BD Biosciences Clontech, Palo Alto, Calif.) derived from flanking vector sequences. Amplified DNA was purified in a 96-well format using Qiagen's Qiaquick columns (Valencia, Calif.) according to the manufacturer's recommendations. Samples were eluted in Milli-Q purified water, dried to completion and resuspended in 7 μl of 3×SSC. A fluorescent assay using PicoGreen (Molecular Probes, Eugene, Oreg.) was randomly performed on 12% of the PCR products to determine the average yield after purification; yields were ˜1.5 μg of DNA which corresponds to a concentration of 214 μg/ml. Purified DNA was arrayed from 384-well microtiter plates onto lysine-coated glass slides using an OmniGrid II microarrayer (GeneMachines, San Carlos, Calif.). After printing, DNA was cross-linked to the glass with 65 mjoules UV irradiation and reactive amines were blocked by treatment with succinic anhydride.
Total RNA was extracted from cells using Qiagen's RNeasy kit; two wells from a 6 well plate were pooled to yield a total of 4×10^5 cells per treatment. RNA was amplified using a modified Eberwine protocol^5 that incorporated a polyA tail into the amplified RNA. Fluorescently-labeled cDNA probes were generated by reverse transcription of 4 μg of RNA with SuperScript II (Invitrogen Life Technologies, Carlsbad, Calif.) using anchored dT primers in the presence of Cy3 or Cy5 dUTP (Amersham, Piscataway, N.J.). Labeled cDNA probe pairs were precipitated with ethanol and purified using Qiaquick columns. Twenty μg each of poly(A) DNA, yeast tRNA, and human Cot1 DNA (Applied Genetics, Melbourne, Fla.) was added to the eluant. The samples were dried to completion and resuspended in 12.5 μl 3×SSC, 0.1% SDS. Probes were heated to 95° C. for 5 minutes, applied to the arrays under a 22 mm^2 cover slip and allowed to hybridize for at least 16 h at 65° C. The arrays were washed at 55° C. for 10 minutes in 2×SSC, 0.1% SDS, followed by two washes at room temperature in 1×SSC (10 min) and 0.2×SSC (15 min). Hybridization of each fluorophore was quantified using an Axon GenePix 4000A scanner.
Differential expression values were expressed as the ratio of the median of background-subtracted fluorescent intensity of the experimental RNA to the median of background-subtracted fluorescent intensity of the control RNA. For ratios greater than or equal to 1.0, the ratio was expressed as a positive value. For ratios less than 1.0, the ratio was expressed as the negative reciprocal (i.e., a ratio of 0.5=−2.0). Median ratios were normalized to 1.0 using two pools of 3000 randomly chosen cDNAs in each pool. Six replicates of each of the two pools were printed in 4 evenly distributed blocks of the array. Expression data was rejected if neither channel produced a signal of at least 2.0-fold over background. Differential expression ratios were determined as the mean of the two values from dye-swapped duplicates.

[3] = test system: human cardiac fibroblasts; experiment: Real-time RT-PCR gene expression in cardiac fibroblasts; assay type: cell-based; settings: normalized to 18s RNA
Protocol: Real-time RT-PCR^18 was performed in a two-step manner. cDNA synthesis and real-time detection were carried out in a PTC-100™ Thermal Cycler (MJ Research Inc, Waltham, Mass.) and an ABI Prism™ 7700 Sequence Detection System (Applied Biosystems, Foster City, Calif.), respectively. Random hexamers (Qiagen, Valencia, Calif.) were used to generate cDNA from 200 ng RNA as described in Applied Biosystems User Bulletin #2. TaqMan™ PCR Core Reagent Kit or TaqMan™ Universal PCR Master Mix (Applied Biosystems) were used in subsequent PCR reactions according to the manufacturer's protocols. Relative quantitation of gene expression was performed using the relative standard curve method. All real-time RT-PCR reactions were performed in triplicate.
Sequence specific primers and probes were designed using Primer Express Version 2 software (Applied Biosystems). Sequences of primers and probes can be found in Table 1 below. Expression levels were normalized to 18S rRNA. The selection of 18S rRNA as an endogenous control was based on an evaluation of the ΔCT levels (Applied Biosystems document # 4308134C) of 6 “housekeeping” genes: Cyclophilin A, 18S, GAPDH, β-actin, β-Glucuronidase, and Hypoxanthine Guanine Phosphoribosyl Transferase.

[4] = test system: human cardiac fibroblasts; experiment: Western blot analysis of Collagen 1 and Fibronectin protein; assay type: cell-based; settings: 48 h
Protocol: Lysis was induced with 0.2 ml of buffer containing 20 mM Tris-HCL, pH 7.9, 137 mM NaCl, 1% Triton X-100, 5 mM EDTA, 10 mM NaF, 1 mM β-glycerophosphate, and protease inhibitor cocktail. The protein concentration of each lysate was measured using coomassie protein reagent from PIERCE. Twenty μg of protein from each sample was loaded and electrophoresed on 4-12% gradient polyacrylamide gels and electrophoretically transferred to nitrocellulose membranes (Invitrogen, San Diego, Calif.). The membranes were incubated with rabbit anti-human Collagen 1 antibody (Cortex Biochem, San Leandro, Calif.), HRP-conjugated anti-human Fibronectin antibody, or goat anti-Actin antibody (Santa Cruz Biotehnology, Santa Cruz, Calif.) in TBST buffer containing 20 mM Tris-HCl, pH 7.5, 150 mM NaCl, 0.1% Tween-20, and 5% nonfat dried milk at 4° C. for ˜16 h. For ERK phosphorylation, cells were treated with 0.5 μmol/L BNP in the presence of 1 μmol/L KT5823 or 10 μmol/L U0126 for 15 min; the membranes were incubated with rabbit anti-human phospho-ERK ½ antibody or rabbit anti-human ERK ½ antibody (Cell Signaling, Beverly, Mass.). For secondary antibody detection, membranes were incubated with HRP-conjugated anti-rabbit antibody or anti-goat antibody at room temperature for 1 h and washed 3 times with TBST buffer. The blots were soaked in ECL Plus reagent for 5 min and exposed to KODAK x-ray film. Signals were identified and quantified using a Typhoon Scanner and Densitometer from Amersham Biosciences (Piscataway, N.J.). Data was analyzed by ANOVA using the Newman-Keuls test to assess significance. Results cGMP Production in Cardiac Fibroblasts

**Q.** For TGFβ, which “increase in cardiac fibroblast proliferation (BrdU incorporation)” value [1] is on record?
**A.** Its value is about 50%.

**Q.** What about the “number of gene expression changes induced” value ([2]; 24 h) of the same substance?
**A.** Its value is 394.

**Q.** What about the TNFAIP6 expression elevation ([2]; 24 h, microarray) of the same substance?
**A.** Its TNFAIP6 expression elevation is about 3 fold.

**Q.** And the TNFSF4 expression elevation ([2]; 24 h, microarray)?
**A.** The TNFSF4 expression elevation was about 3 fold.

**Q.** And the “number of gene expression changes induced” value ([2]; 48 h)?
**A.** The value was 501.

**Q.** What about the “ACTA2 expression level relative to control” value ([3]; 6 h, lot 1) of the same substance?
**A.** The value was 1.1 ± 0.11.

**Q.** What about the “CTGF expression level relative to control” value ([3]; 6 h, lot 1) of the same substance?
**A.** Its value is 3.5 ± 0.08.

**Q.** And the “Collagen 1 expression level relative to control” value ([3]; 6 h, lot 1)?
**A.** Its value is 1.9 ± 0.04.

**Q.** And the “Fibronectin expression level relative to control” value ([3]; 6 h, lot 1)?
**A.** Its value is 1.1 ± 0.17.

**Q.** What about the “IL6 expression level relative to control” value ([3]; 6 h, lot 1) of the same substance?
**A.** Its value is 3.6 ± 0.27.

**Q.** And the “IL11 expression level relative to control” value ([3]; 6 h, lot 1)?
**A.** The value was 13.3 ± 0.89.

**Q.** What about the “PTGS2/COX-2 expression level relative to control” value ([3]; 6 h, lot 1) of the same substance?
**A.** The value was 9.0 ± 1.49.

**Q.** And the “SERPINE1/PAI-1 expression level relative to control” value ([3]; 6 h, lot 1)?
**A.** The value was 7.3 ± 0.44.

**Q.** And the “TIMP3 expression level relative to control” value ([3]; 6 h, lot 1)?
**A.** Its value is 1.4 ± 0.03.

**Q.** What about the “ACTA2 expression level relative to control” value ([3]; 24 h, lot 1) of the same substance?
**A.** Its value is 2.2 ± 0.00.

**Q.** What about the “CTGF expression level relative to control” value ([3]; 24 h, lot 1) of the same substance?
**A.** The value was 3.3 ± 0.25.

**Q.** What about the “Collagen 1 expression level relative to control” value ([3]; 24 h, lot 1) of the same substance?
**A.** Its value is 3.3 ± 0.05.

**Q.** What about the “Fibronectin expression level relative to control” value ([3]; 24 h, lot 1) of the same substance?
**A.** The value was 1.0 ± 0.05.

**Q.** And the “IL6 expression level relative to control” value ([3]; 24 h, lot 1)?
**A.** The value was 1.7 ± 0.14.

**Q.** What about the “IL11 expression level relative to control” value ([3]; 24 h, lot 1) of the same substance?
**A.** The value was 32.3 ± 0.82.

**Q.** And the “PTGS2/COX-2 expression level relative to control” value ([3]; 24 h, lot 1)?
**A.** The value was 3.5 ± 0.67.

**Q.** And the “SERPINE1/PAI-1 expression level relative to control” value ([3]; 24 h, lot 1)?
**A.** The value was 8.5 ± 0.08.

**Q.** And the “TIMP3 expression level relative to control” value ([3]; 24 h, lot 1)?
**A.** The value was 2.6 ± 0.26.

**Q.** What about the “ACTA2 expression level relative to control” value ([3]; 24 h, lot 2) of the same substance?
**A.** Its value is 2.3 ± 0.12.

**Q.** What about the “CTGF expression level relative to control” value ([3]; 24 h, lot 2) of the same substance?
**A.** The value was 2.2 ± 0.16.

**Q.** What about the “Collagen 1 expression level relative to control” value ([3]; 24 h, lot 2) of the same substance?
**A.** The value was 1.5 ± 0.09.

**Q.** And the “Fibronectin expression level relative to control” value ([3]; 24 h, lot 2)?
**A.** Its value is 1.0 ± 0.02.

**Q.** And the “IL6 expression level relative to control” value ([3]; 24 h, lot 2)?
**A.** Its value is 1.4 ± 0.05.

**Q.** And the “IL11 expression level relative to control” value ([3]; 24 h, lot 2)?
**A.** Its value is 7.7 ± 0.81.

**Q.** And the “PTGS2/COX-2 expression level relative to control” value ([3]; 24 h, lot 2)?
**A.** The value was 4.9 ± 0.36.

**Q.** And the “SERPINE1/PAI-1 expression level relative to control” value ([3]; 24 h, lot 2)?
**A.** Its value is 2.4 ± 0.06.

**Q.** And the “TIMP3 expression level relative to control” value ([3]; 24 h, lot 2)?
**A.** The value was 1.5 ± 0.12.

**Q.** What about the “ACTA2 expression level relative to control” value ([3]; 48 h, lot 1) of the same substance?
**A.** Its value is 1.0 ± 0.19.

**Q.** And the “CTGF expression level relative to control” value ([3]; 48 h, lot 1)?
**A.** The value was 3.1 ± 0.01.

**Q.** What about the “Collagen 1 expression level relative to control” value ([3]; 48 h, lot 1) of the same substance?
**A.** Its value is 3.8 ± 0.38.

**Q.** What about the “Fibronectin expression level relative to control” value ([3]; 48 h, lot 1) of the same substance?
**A.** The value was 2.2 ± 0.38.

**Q.** What about the “IL6 expression level relative to control” value ([3]; 48 h, lot 1) of the same substance?
**A.** The value was 1.6 ± 0.12.

**Q.** What about the “IL11 expression level relative to control” value ([3]; 48 h, lot 1) of the same substance?
**A.** The value was 17.6 ± 0.22.

**Q.** What about the “PTGS2/COX-2 expression level relative to control” value ([3]; 48 h, lot 1) of the same substance?
**A.** The value was 2.2 ± 0.12.

**Q.** And the “SERPINE1/PAI-1 expression level relative to control” value ([3]; 48 h, lot 1)?
**A.** The value was 8.4 ± 1.33.

**Q.** What about the “TIMP3 expression level relative to control” value ([3]; 48 h, lot 1) of the same substance?
**A.** Its value is 3.0 ± 0.34.

**Q.** And the “ACTA2 expression level relative to control” value ([3]; 48 h, lot 2)?
**A.** The value was 2.5 ± 0.13.

**Q.** What about the “CTGF expression level relative to control” value ([3]; 48 h, lot 2) of the same substance?
**A.** The value was 2.1 ± 0.14.

**Q.** What about the “Collagen 1 expression level relative to control” value ([3]; 48 h, lot 2) of the same substance?
**A.** The value was 2.5 ± 0.32.

**Q.** What about the “Fibronectin expression level relative to control” value ([3]; 48 h, lot 2) of the same substance?
**A.** Its value is 2.0 ± 0.39.

**Q.** And the “IL6 expression level relative to control” value ([3]; 48 h, lot 2)?
**A.** Its value is 1.4 ± 0.17.

**Q.** And the “IL11 expression level relative to control” value ([3]; 48 h, lot 2)?
**A.** Its value is 5.9 ± 0.18.

**Q.** And the “PTGS2/COX-2 expression level relative to control” value ([3]; 48 h, lot 2)?
**A.** The value was 5.4 ± 0.92.

**Q.** What about the “SERPINE1/PAI-1 expression level relative to control” value ([3]; 48 h, lot 2) of the same substance?
**A.** The value was 2.6 ± 0.03.

**Q.** What about the “TIMP3 expression level relative to control” value ([3]; 48 h, lot 2) of the same substance?
**A.** Its value is 1.7 ± 0.13.

**Q.** What about the “induction of Collagen 1 protein synthesis” value [4] of the same substance?
**A.** The value was about 3 fold.
